# Reference: US20230355705A1, “DISCOVERY OF YEATS2 YEATS DOMAIN INHIBITORS AS NOVEL ANTI-CANCER AGENTS” (The University of Hong Kong, priority 2022, published 2023)
# Non-standard residues stand in square brackets, D forms with d. Residues, ends and D or L forms follow the SMILES beside them. *: point of attachment. Benzofuran(2-CO) = O=C(c1cc2ccccc2o1)*; X1 = O=C(c1cc2ccc(Br)cc2o1)*; NMeA = CN[C@@H](C)C(=O)O; Ms = CS(=O)(=O)*
# Molecular target: T1, YEATS2 YEATS domain (Homo sapiens, UniProt Q9ULM3)
# T1 construct: 201-332 containing an N-terminal 10×His-SUMO tag was overexpressed in Escherichia coli BL21 (DE3); 10×His-SUMO (N, cleaved yes); made in house; host or cells: Escherichia coli BL21 (DE3)
# T1 sequence (Q9ULM3 201-332 limits assumed): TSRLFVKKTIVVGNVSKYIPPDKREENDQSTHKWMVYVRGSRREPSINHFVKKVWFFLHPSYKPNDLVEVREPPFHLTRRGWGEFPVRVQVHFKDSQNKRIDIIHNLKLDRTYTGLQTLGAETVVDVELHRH
# Assay: competitive photo-cross-linking assay
# Assay type: binding
# Protocol: The probes in the absence or presence of different concentrations of competitors were incubated with recombinant proteins (5 or 20 ng/µL) in binding buffer (50 mM HEPES, 150 mM NaCl, 2 mM MgCl2, 0.1% Tween-20, 20% glycerol, pH 7.5, with 50 ng/µL BSA) for 10 min at 4° C. Then, the samples were irradiated at 365 nm using UV lamp for 20 min in 96-well on ice.
# To the prepared photo-cross-linking samples, we added 100 µM rhodamine-N3 for in-gel fluorescence (10 mM stock in DMSO), followed by 1 mM TCEP (freshly prepared 50 mM stock in H2O) and 100 µM TBTA (10 mM stock in DMSO); finally, the reactions were initiated by the addition of 1 mM CuSO4 (freshly prepared 50 mM stock in H2O). The reactions were incubated for 1 h at room temperature (22 to 25° C.) with regular vortexing. The reactions were quenched by adding 5 volumes of ice-cold acetone and placed at — 20° C. overnight to precipitate proteins.
# Samples after protein precipitation were centrifuged at 13,000 × g for 5 min at 4° C. The supernatant was discarded, and the pellet was washed with ice-cooled acetone and air-dried for 10 min. The proteins were resuspended in 1 × LDS sample loading buffer (Invitrogen, Waltham, MA) with 50 mM DTT and heated at 95° C. for 8 min. Samples were then resolved by SDS-PAGE. […]
# YEATS domain of YEATS2 is newly identified as histone benzoylation reader. […]
inhibitory activity / potency against YEATS2 YEATS (in words),IC50 (Table 2),SMILES
maintained the inhibitory activity,,C[C@@H](C(=O)N1CCC[C@H]1C(N)=O)N(C)C(=O)[C@H](CO)NC(=O)[C@H](CCCCNC(=O)c1cc2ccc(Br)cc2o1)NS(C)(=O)=O [HC18] (Ms-K(X1)S[NMeA]P-NH2)
,0.6 µM,C[C@H](NC(=O)[C@H](CO)NC(=O)[C@H](CCCCNC(=O)c1cc2ccccc2o1)NS(C)(=O)=O)C(=O)N1CCC[C@H]1C(N)=O [MsKSAP] (Ms-K(Benzofuran(2-CO))SAP-NH2)
